“Also recorded” adds a separate entry of the source.
What was measured:
[1] = biological target: T1, hPTP1B1–285 (Homo sapiens, UniProt P18031); experiment: PTP1B activity assay, short form hPTP1B1–285 (p‐NPP); format: biochemical; details: ± S.D; p‐NPP substrate, 15 min at 37 °C
T1 construct: hPTP1B1–285 (the short form with an N‐terminal catalytic domain)
T1 sequence (P18031 1-285): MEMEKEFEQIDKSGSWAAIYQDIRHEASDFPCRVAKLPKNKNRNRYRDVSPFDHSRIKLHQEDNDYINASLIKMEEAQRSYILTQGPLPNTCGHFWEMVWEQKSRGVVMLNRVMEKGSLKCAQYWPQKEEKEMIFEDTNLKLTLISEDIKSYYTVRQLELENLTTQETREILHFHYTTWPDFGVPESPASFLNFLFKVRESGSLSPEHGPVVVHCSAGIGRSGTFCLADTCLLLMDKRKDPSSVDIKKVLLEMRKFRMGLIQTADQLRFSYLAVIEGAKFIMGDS
Description: (§1) The inhibitory activity of PTP1B was assessed using two enzyme variants: hPTP1B1–285 (the short form with an N‐terminal catalytic domain) and hPTP1B1–400 (the long form with an intrinsically disordered C‐terminal regulatory domain). […] According to Coronel‐Tovar et al., the disordered region of the C‐terminal domain plays a crucial role in modulating PTP1B enzymatic activity.^[ [30] ^] […] Different concentrations of the compounds were evaluated to determine their IC50 values (Table 1 ).
To do so, these terpenoids were tested against hPTP1B1–285.
(§2) Recombinant human protein tyrosine phosphatase 1B, consisting of 400 and 285 amino acid residues, was used.^[ [35] ^] […] Aliquots of 0–10 µL of the test compounds (triplicate) were taken and incubated for 15 min at 37 °C with 85 µL of Tris buffer solution (50 mM, pH 6.8) containing PTP1B enzyme and 5 µL of p‐nitrophenyl phosphate substrate (p‐NPP, 10 mM). Absorbance was then measured at a wavelength of 405 nm. The inhibitory activity was determined according to Equation (1). (1) % PTP1B=(A405b/A405c)×100 where % PTP1B: Is the percentage of inhibition. A 405c: Is the corrected absorbance of the blank (A 405initial–A 405final). A 405b: Is the corrected absorbance of the compounds (A 405control–A 405compound).

[2] = system: HepG2 cells; experiment: Cell viability with crystal violet; format: cell-based; details: 1 and 25 µM, 24 h
Description: Subsequently, we evaluated the same compounds in a HepG2 insulin‐resistant model.
A 96‐well plate was seeded with 3,000 cells per well and incubated for 24 h. Afterward, the cells were treated with test compounds at various concentrations for 24 h. After incubation, the media was removed, and 100 µL of 1% glutaraldehyde was added for 15 min. Afterward, the liquid was removed, and 50 µL of 0.5% crystal violet (dissolved in 25% methanol) was added for 30 min. The crystal violet staining solution was removed, and the plate was thoroughly washed with tap water. The precipitate was dissolved in a 10% acetic acid solution and mixed for 15 min. The absorbance was then measured at 590 nm using a plate reader (xMark Microplate Spectrophotometer—Bio‐Rad).
Figure S59. Cell viability assessment by crystal violet staining. HepG2 cell viability was evaluated
after treatment with the respective compounds at concentrations of 1 and 25 µM for 24 hours. Bar
graphs represent mean ± SEM.

[3] = biological target: T2, hPTP1B1–400 (Homo sapiens, UniProt P18031); experiment: PTP1B activity assay, long form hPTP1B1–400 (p‐NPP); format: biochemical; parameters: hPTP1B1–400 (the long form with an intrinsically disordered C‐terminal regulatory domain); details: ± S.D; p‐NPP substrate, 15 min at 37 °C, triplicate
T2 sequence (P18031 1-400): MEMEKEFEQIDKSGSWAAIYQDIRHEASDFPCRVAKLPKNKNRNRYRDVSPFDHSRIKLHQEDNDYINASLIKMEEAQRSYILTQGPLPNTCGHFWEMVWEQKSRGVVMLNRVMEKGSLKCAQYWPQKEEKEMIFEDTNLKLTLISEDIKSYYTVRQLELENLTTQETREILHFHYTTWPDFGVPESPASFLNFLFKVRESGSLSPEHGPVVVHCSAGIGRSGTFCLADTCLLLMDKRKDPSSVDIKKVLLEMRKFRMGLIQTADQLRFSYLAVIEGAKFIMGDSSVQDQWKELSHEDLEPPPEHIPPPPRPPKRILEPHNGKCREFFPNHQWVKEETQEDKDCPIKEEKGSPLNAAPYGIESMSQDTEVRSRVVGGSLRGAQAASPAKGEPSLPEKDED
Description: as §1, §2

IC50 [1]: 14.9 ± 0.95 µM
IC50 [3]: 2.06 ± 0.08 µM
SMILES: CC1(C(=O)O)CCC2(C)CCC3(C)C(=CC(=O)C4C5(C)Cc6c([nH]c7ccc(C(F)(F)F)cc67)C(C)(C)C5CCC43C)C2C1 (stereo not drawn) [Compound 3c]
HepG2 cell viability [2]: No significant differences; also recorded: did not compromise HepG2 cell viability
